Common to all, as to type: cell-based
For assay [1], the system named is human renal adenocarcinoma cell line (786-O). Put plainly: MTT assay, growth inhibition of 786-O cells. The note with it: for pIC50 / IC50: Homo sapiens; for pIC50: 786-0, MTT, 48 hours incubation, 786-O, read-out: 786-O (IC50); for inhibitory activity in 786-O (in words): summary of Table 3, 786-O; for IC50: 786-0, 48 h, read-out: 786-O (IC50, μM). As to the method:
(§1) To evaluate the anticancer activity of the oxindole derivatives produced and analyzed in examples 1 to 8, MTT assay was performed to confirm the growth inhibitory effect on cancer cells. More specifically, human prostate adenocarcinoma cell line (LNCaP), human breast cancer cell line (MCF-7), human ovarian cancer cell line (SKOV3), human lung cancer cell line […] and human renal adenocarcinoma cell line (786-O) were cultured in DMEM medium supplemented with 1% penicillin/streptomycin and 10% fetal bovine serum (All from Life Technologies, Grand Island, N.Y.). Cells were seeded in 96-well plates (3×10^3 cells/well) containing 100 μL of growth medium for 24 hours. After the medium was removed, 100 μL of each of the different analogues (dissolved in DMSO to 0.025% or less) was added to each well and cultured at 37° C. for 48 hours. After 48 hours of incubation, 100 μL of MTT reagent was added to each well. After incubation at 37° C. for 4 hours, the supernatant was aspirated, and the formazan crystals were dissolved in 100 μL of DMSO at 37° C. for 10 minutes with gentle stirring. Absorbance per well was measured at 540 nm using a VERSA max microplate reader (Molecular Devices Corp.). IC50 values were defined as compound concentrations that inhibited cell proliferation by 50% compared to cells treated with the highest amount of DMSO (0.025%) and were considered to be 100% viability.
In general terms: Tetrazolium dyes change colour on reduction, which living cells bring about.

The subject of assay [2] is human breast cancer cell line (MCF-7). Kind of assay: MTT assay, growth inhibition of MCF-7 cells. The note with it: for pIC50: MCF7, MTT, 48 hours incubation, MCF-7, read-out: MCF-7 (IC50); for IC50: MCF7, 48 h, read-out: MCF-7 (IC50, μM). The method, then:
as §1

In assay [3] the test system is human ovarian cancer cell line (SKOV3). Kind of assay: MTT assay, growth inhibition of SKOV3 cells. The following applies: for pIC50: SK-OV-3, MTT, 48 hours incubation, SKOV3, read-out: SKOV3 (IC50); for IC50: SK-OV-3, 48 h, read-out: SKOV3 (IC50, μM). The method, then: as §1
Assay [4] relates to human prostate adenocarcinoma cell line (LNCaP). Kind of assay: MTT assay, growth inhibition of LNCaP cells. The following applies: for pIC50 / IC50: Homo sapiens, LNCaP; for pIC50: MTT, 48 hours incubation, read-out: LNCaP (IC50); for inhibitory activity in LNCaP (in words): summary of Table 3, LNCaP; for IC50: 48 h, read-out: LNCaP (IC50, μM). The method, then:
as §1

The test system of assay [5] is human lung cancer cell line (A459). Put plainly: MTT assay, growth inhibition of A549 cells. The following applies: for pIC50 / IC50: Homo sapiens; for pIC50: MTT, 48 hours incubation, A549, read-out: A549 (IC50); for IC50: 48 h, read-out: A549 (IC50, μM). As to the method:
as §1

In general, pIC50 refers to the negative decadic logarithm of the IC50, by convention in mol/L. By IC50 is commonly meant the concentration needed to halve the response being measured.

Structures are written as SMILES. pIC50: −log10 of the molar value. Like-named read-outs stand apart in the source and are kept apart here.

Regarding `CNC(=O)CC1C(=O)N(Nc2ccccc2C)c2c(C)cccc21` (centres unmarked) [3b, N-Methyl-2-(7-methyl-2-oxo-1-(o-tolylamino)indolin-3-yl)acetamide], the pIC50 in assay [1], in assay [2], in assay [3], in assay [4] and in assay [5] was below 4.30 throughout.

Take `CNC(=O)CC1C(=O)N(Nc2cccc(C)c2C)c2c1ccc(C)c2C` (centres unmarked) [3c, 2-(1-((2,3-Dimethylphenyl)amino)-6,7-dimethyl-2-oxoindolin-3-yl)-N-methylacetamide]: the pIC50 in assay [1] is 4.39; in assay [2] it was below 4.30; in assay [3] it was below 4.30; in assay [4], 4.35; in assay [5] it was below 4.30.

On to `CNC(=O)CC1C(=O)N(Nc2cccc(F)c2C)c2c1ccc(F)c2C` (centres unmarked) [3d, 2-(6-Fluoro-1-((3-fluoro-2-methylphenyl)amino)-7-methyl-2-oxoindolin-3-yl)-N-methylacetamide], for which the pIC50 in assay [1], in assay [2], in assay [3], in assay [4] and in assay [5] was below 4.30 throughout.

With `CNC(=O)CC1C(=O)N(Nc2ccc(C)cc2C)c2c(C)cc(C)cc21` (centres unmarked) [3g, 2-(1-((2,4-dimethylphenyl)amino)-5,7-dimethyl-2-oxoindolin-3-yl)-N-methylacetamide], the pIC50 in assay [1], in assay [2], in assay [3], in assay [4] and in assay [5] was below 4.30 throughout.

On to `CNC(=O)CC1C(=O)N(Nc2ccc(F)cc2C)c2c(C)cc(F)cc21` (centres unmarked) [3h, 2-(5-Fluoro-1-((4-fluoro-2-methylphenyl)amino)-7-methyl-2-oxoindolin-3-yl)-N-methylacetamide], for which the negative-log IC50 (pIC50) in assay [1] was 4.38; in assay [2] it was below 4.30; in assay [3], below 4.30; in assay [4] it was 4.37; in assay [5], below 4.30.

Regarding `CNC(=O)CC1C(=O)N(Nc2ccc(Cl)cc2C)c2c(C)cc(Cl)cc21` (centres unmarked) [3i, 2-(5-Chloro-1-((4-chloro-2-methylphenyl)amino)-7-methyl-2-oxoindolin-3-yl)-N-methylacetamide], the pIC50 was 4.53 in assay [1]; below 4.30 in assay [2]; 4.35 in assay [3]; 4.52 in assay [4]; below 4.30 in assay [5]. Moreover, in assay [1], the “inhibitory activity in 786-O (in words)” value was “excellent inhibitor activity”. For the same compound, the “inhibitory activity in LNCaP (in words)” value in assay [4] is reported as “excellent inhibitor activity”.

Take `CNC(=O)CC1C(=O)N(Nc2cc(Br)ccc2C)c2c(C)ccc(Br)c21` (centres unmarked) [3l, 2-(4-Bromo-1-((5-bromo-2-methylphenyl)amino)-7-methyl-2-oxoindolin-3-yl)-N-methylacetamide]: the pIC50 in assay [1] was 4.37; in assay [2], below 4.30; in assay [3], below 4.30; in assay [4] it was 4.37; in assay [5], below 4.30.

As for `CNC(=O)CC1C(=O)N(Nc2ccccc2)c2ccccc21` (centres unmarked) [3m, N-methyl-2-(2-oxo-1-(phenylamino)indolin-3-yl)acetamide], the pIC50 in assay [1], in assay [2], in assay [3], in assay [4] and in assay [5] was below 4.30 throughout.

In the case of `CNC(=O)CC1C(=O)N(Nc2ccc(C)cc2)c2ccc(C)cc21` (centres unmarked) [3n, N-Methyl-2-(5-methyl-2-oxo-1-(p-tolylamino)indolin-3-yl)acetamide], the pIC50 in assay [1], in assay [2], in assay [3], in assay [4] and in assay [5] was below 4.30 in each case.

With `CCc1cccc(NN2C(=O)C(CC(=O)NC)c3ccc(CC)cc32)c1` (centres unmarked) [3o, 2-(6-Ethyl-1-((3-ethylphenyl)amino)-2-oxoindolin-3-yl)-N-methylacetamide], the pIC50 in assay [1], in assay [2], in assay [3], in assay [4] and in assay [5] was below 4.30 in each case.

Regarding `CCNC(=O)CC1C(=O)N(Nc2ccccc2CC)c2c(CC)cccc21` (centres unmarked) [4b, N-Ethyl-2-(7-ethyl-1-((2-ethylphenyl)amino)-2-oxoindolin-3-yl)acetamide], the pIC50 is below 4.30 in assay [1]; below 4.30 in assay [2]; below 4.30 in assay [3]; 4.49 in assay [4]; below 4.30 in assay [5]. Besides, the “inhibitory activity in 786-O (in words)” value in assay [1] is given as “excellent activity”. Besides, in assay [4], the “inhibitory activity in LNCaP (in words)” value was “excellent activity”. Further, the “inhibitory activity in A549 (in words)” value in assay [5] (summary of Table 3, A549) is reported as “excellent activity”.

`CCc1ccccc1NN1C(=O)C(CC(=O)NC2CCCCC2)c2cccc(CC)c21` (centres unmarked) [4d, N-Cyclohexyl-2-(7-ethyl-1-((2-ethylphenyl)amino)-2-oxoindolin-3-yl)acetamide]: the pIC50 in assay [1] was 4.48; in assay [2], 4.39; in assay [3], below 4.30; in assay [4], 4.48; in assay [5] it was below 4.41.

Take `CCc1ccccc1NN1C(=O)C(CC(=O)NC(C)(C)C)c2cccc(CC)c21` (centres unmarked) [4e, N-(tert-butyl)-2-(7-ethyl-1-((2-ethylphenyl)amino)-2-oxoindolin-3-yl)acetamide]: the pIC50 in assay [1] is 4.44; in assay [2] it was below 4.30; in assay [3], below 4.30; in assay [4], 4.82; in assay [5] it was below 4.30.

On to `CCc1ccccc1NN1C(=O)C(CC(N)=O)c2cccc(CC)c21` (centres unmarked) [4f, 2-(7-Ethyl-1-((2-ethylphenyl)amino)-2-oxoindolin-3-yl)acetamide], for which the pIC50 in assay [1], in assay [2], in assay [3], in assay [4] and in assay [5] was below 4.30 throughout.

As for `CCOC(=O)NC(=O)CC1C(=O)N(Nc2ccccc2CC)c2c(CC)cccc21` (centres unmarked) [4h, Ethyl (2-(7-ethyl-1-((2-ethylphenyl)amino)-2-oxoindolin-3-yl)acetyl)carbamate], the IC50 in assay [1], in assay [2], in assay [3], in assay [4] and in assay [5] was above 50 µM throughout.

In the case of `CCc1ccccc1NN1C(=O)C(CC(=O)NC(=O)OC)c2cccc(CC)c21` (centres unmarked) [4i, Methyl (2-(7-ethyl-1-((2-ethylphenyl)amino)-2-oxoindolin-3-yl)acetyl)carbamate], the pIC50 in assay [1] was 4.49; in assay [2], below 4.30; in assay [3], below 4.30; in assay [4], 4.47; in assay [5], below 4.30.

On to `CCc1ccccc1NN1C(=O)C(CC(=O)N[C@@H](C)C(=O)OC)c2cccc(CC)c21` (stereo partly drawn) [4j, Methyl (2-(7-ethyl-1-((2-ethylphenyl)amino)-2-oxoindolin-3-yl)acetyl)-L-alaninate], for which the IC50 in assay [1], in assay [2], in assay [3], in assay [4] and in assay [5] was above 50 µM each time.

Consider `CCc1ccccc1NN1C(=O)C(CC(=O)OC)c2cccc(CC)c21` (centres unmarked) [6a, Methyl 2-(7-ethyl-1-((2-ethylphenyl)amino)-2-oxoindolin-3-yl)acetate], for which the pIC50 in assay [1], in assay [2], in assay [3], in assay [4] and in assay [5] was below 4.30 in each case.

For the origin of these results see US10322999B2, “Oxindoles derivatives, preparation method thereof and pharmaceutical compositions for the prevention or treatment of cancer containing the same as an active ingredient” (RESEARCH & BUSINESS FOUNDATION SUNGKYUNKWAN UNIVERSITY, priority 2017, dated 2019).
